For 18 compounds, T/C results are on record in PubChem BioAssay AID328 (DTP/NCI, 2004).

Values joined by “and” are separate entries in the source; they are usually repeats but may differ in a detail not shown here. Identical values can stand only once. Inconclusive results and toxic doses are left out.

The subject of this test is BDF1 mice, P388 leukemia ip, median survival T/C. As to the kind of experiment: NCI In Vivo Anticancer Drug Screen. Data for tumor model P388 Leukemia (intraperitoneal) in B6D2F1 (BDF1) mice. The conditions noted are these: endpoint: median survival time, higher = longer survival. A digest of the protocol:
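In tumour-bearing mice, survival after compound treatment is set against the vehicle group and given as a quotient.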

The mark [1] stands for this setting: dose: 100.0 mg/kg/injection, schedule: Q01DX009 (ip), vehicle: Klucel (hydroxypropylcellulose) (HPC).
Where [2] appears, read: dose: 200.0 mg/kg/injection, schedule: Q01DX009 (ip), vehicle: Klucel (hydroxypropylcellulose) (HPC).
Setting [3] is: dose: 400.0 mg/kg/injection, schedule: Q01DX009 (ip), vehicle: Klucel (hydroxypropylcellulose) (HPC).
Where [4] appears, read: dose: 25.0 mg/kg/injection, schedule: Q01DX009 (ip), vehicle: saline with Tween-80.
[5] abbreviates: dose: 50.0 mg/kg/injection, schedule: Q01DX009 (ip), vehicle: saline with Tween-80.
Setting [6] is: dose: 100.0 mg/kg/injection, schedule: Q01DX009 (ip), vehicle: saline with Tween-80.
The mark [7] stands for this setting: dose: 6.25 mg/kg/injection, schedule: Q01DX009 (ip), vehicle: saline with Tween-80.
Where [8] appears, read: dose: 12.5 mg/kg/injection, schedule: Q01DX009 (ip), vehicle: saline with Tween-80.
Where [9] appears, read: dose: 100.0 mg/kg/injection, schedule: Q04DX003 (ip), vehicle: saline with Tween-80.
[10] abbreviates: dose: 200.0 mg/kg/injection, schedule: Q01DX009 (ip), vehicle: saline with Tween-80.
Setting [11] is: dose: 200.0 mg/kg/injection, schedule: Q04DX003 (ip), vehicle: saline with Tween-80.
Where [12] appears, read: dose: 400.0 mg/kg/injection, schedule: Q04DX003 (ip), vehicle: saline with Tween-80.
[13] abbreviates: dose: 50.0 mg/kg/injection, schedule: Q01DX009 (ip), vehicle: Klucel (hydroxypropylcellulose) (HPC).
[14] abbreviates: dose: 100.0 mg/kg/injection, schedule: Q04DX003 (ip), vehicle: Klucel (hydroxypropylcellulose) (HPC).

On to `OC1(O)COC(c2ccccc2)OC1`, for which the T/C reads like this: (dose: 100.0 mg/kg/injection, schedule: Q01DX001 (ip), vehicle: Klucel (hydroxypropylcellulose) (HPC)) 104 % of control; under setting [1], 120 % of control; (dose: 200.0 mg/kg/injection, schedule: Q01DX001 (ip), vehicle: Klucel (hydroxypropylcellulose) (HPC)) 104 % of control; under setting [2], 110 % of control; (dose: 400.0 mg/kg/injection, schedule: Q01DX001 (ip), vehicle: Klucel (hydroxypropylcellulose) (HPC)) 100 % of control; under setting [3], 115 % of control.

As to `CCCCCCCCCCCC(c1ccccc1)[N+](C)(C)Cc1ccccc1` (stereo unspecified), the T/C runs as follows: (dose: 0.25 mg/kg/injection, schedule: Q01DX010 (ip), vehicle: saline) 100 % of control; (dose: 0.5 mg/kg/injection, schedule: Q01DX010 (ip), vehicle: saline) 108 % of control; (dose: 1.0 mg/kg/injection, schedule: Q01DX010 (ip), vehicle: saline) 116 % of control; (dose: 2.0 mg/kg/injection, schedule: Q01DX010 (ip), vehicle: saline) 108 % of control.

For `O=C(COC1CCCCC1)OC1CCCCC1`, the T/C under setting [4] was 100 % of control, the T/C under setting [5] is 113 % of control and the T/C under setting [6] is 118 % of control.

Regarding `Nc1ncnc2sc3c(c12)CCCC3`, the T/C under setting [1] is 105 % of control, the T/C under setting [2] was 114 % of control and the T/C under setting [3] is 108 % of control.

Take `Clc1ccc(Oc2ccc(N3C=Nc4ccc(Oc5ccc(Cl)cc5)cc4C3)cc2)cc1`: the T/C (dose: 100.0 mg/kg/injection, schedule: Q04DX003 (ip), vehicle: alcohol) was 100 % of control; the T/C (dose: 200.0 mg/kg/injection, schedule: Q04DX003 (ip), vehicle: alcohol) was 100 % of control; the T/C (dose: 400.0 mg/kg/injection, schedule: Q04DX003 (ip), vehicle: alcohol) is 95 % of control.

Consider `O=C1OC(O)C(Cl)=C1Cl` (stereo unspecified), for which the T/C by setting is: (dose: 1.56 mg/kg/injection, schedule: Q01DX009 (ip), vehicle: saline with Tween-80) 101 % of control; (dose: 3.12 mg/kg/injection, schedule: Q01DX009 (ip), vehicle: saline with Tween-80) 107 % of control; under setting [7], 109 % of control and 115 % of control; under setting [8], 115 % of control.

For `CC(C)C(C(=O)c1ccccc1)c1ccccc1` (stereo unspecified), the T/C runs as follows: under setting [4], 95 % of control; under setting [5], 109 % of control; under setting [6], 100 % of control; under setting [9], 100 % of control; under setting [10], 100 % of control; under setting [11], 118 % of control. Also, the T/C is 100 % of control (dose: 400.0 mg/kg/injection, schedule: Q01DX009 (ip), vehicle: saline with Tween-80) and 100 % of control under setting [12].

Regarding `CCCCCCC(=O)/C=C/c1c(Cl)cccc1Cl`, the T/C by setting is: under setting [4], 91 % of control; under setting [5], 112 % of control; under setting [6], 103 % of control and 108 % of control; under setting [10], 116 % of control.

In the case of `C[C@H]1CCC/C=C/[C@@H]2C[C@H](O)C[C@H]2[C@H](O)/C=C/C(=O)O1`, the T/C was 110 % of control (dose: 2.5 mg/kg/injection, schedule: Q01DX009 (ip), vehicle: Klucel (hydroxypropylcellulose) (HPC)); 90 % of control (dose: 4.0 mg/kg/injection, schedule: Q01DX010 (ip), vehicle: other); 106 % of control (dose: 5.0 mg/kg/injection, schedule: Q01DX009 (ip), vehicle: Klucel (hydroxypropylcellulose) (HPC)); 90 % of control (dose: 8.0 mg/kg/injection, schedule: Q01DX010 (ip), vehicle: other); 94 % of control (dose: 10.0 mg/kg/injection, schedule: Q01DX009 (ip), vehicle: Klucel (hydroxypropylcellulose) (HPC)); 100 % of control (dose: 25.0 mg/kg/injection, schedule: Q01DX009 (ip), vehicle: Klucel (hydroxypropylcellulose) (HPC)). For the same compound, the T/C reads like this: under setting [13], 100 % of control; (dose: 50.0 mg/kg/injection, schedule: Q04DX003 (ip), vehicle: Klucel (hydroxypropylcellulose) (HPC)) 104 % of control; under setting [1], 90 % of control; under setting [14], 109 % of control.

For the compound `Oc1ccc2ccc3[nH]cnc3c2c1`, the T/C under setting [13] was 95 % of control, the T/C under setting [1] is 95 % of control and the T/C under setting [2] is 100 % of control.

Regarding `Nc1cc(OCc2ccccc2)cc(OCc2ccccc2)c1`, the T/C (dose: 6.25 mg/kg/injection, schedule: Q01DX009 (ip), vehicle: water) is 96 % of control; the T/C (dose: 12.5 mg/kg/injection, schedule: Q01DX009 (ip), vehicle: water) was 96 % of control and 101 % of control; the T/C (dose: 12.5 mg/kg/injection, schedule: Q04DX003 (ip), vehicle: water) is 105 % of control; the T/C (dose: 25.0 mg/kg/injection, schedule: Q01DX009 (ip), vehicle: water) is 99 % of control and 105 % of control; the T/C (dose: 25.0 mg/kg/injection, schedule: Q04DX003 (ip), vehicle: water) was 99 % of control; the T/C (dose: 50.0 mg/kg/injection, schedule: Q01DX009 (ip), vehicle: water) was 97 % of control and 98 % of control. Besides, the T/C (dose: 50.0 mg/kg/injection, schedule: Q04DX003 (ip), vehicle: water) is 99 % of control; the T/C (dose: 100.0 mg/kg/injection, schedule: Q01DX009 (ip), vehicle: water) is 92 % of control and 100 % of control; the T/C (dose: 100.0 mg/kg/injection, schedule: Q04DX003 (ip), vehicle: water) was 106 % of control and 107 % of control and 108 % of control; the T/C (dose: 200.0 mg/kg/injection, schedule: Q04DX003 (ip), vehicle: water) is 95 % of control and 96 % of control.

On to `CC(=N/NC(N)=S)/C(C)=N/NC(N)=S`, for which the T/C is 100 % of control under setting [1], 100 % of control under setting [2] and 100 % of control under setting [3].

As for `[Cl][Co]([Cl])[Cl].[NH-]CC[N-]CC[NH-]`, the T/C reads like this: under setting [5], 109 % of control; under setting [6], 109 % of control.

For the compound `CCCCN1CCN(c2ccc([N+](=O)[O-])c3no[n+]([O-])c23)CC1`, the T/C by setting is: (dose: 16.0 mg/kg/injection, schedule: Q04DX003 (ip), vehicle: saline with Tween-80) 121 % of control; (dose: 32.0 mg/kg/injection, schedule: Q04DX003 (ip), vehicle: saline with Tween-80) 150 % of control; (dose: 64.0 mg/kg/injection, schedule: Q04DX003 (ip), vehicle: saline with Tween-80) 100 % of control.

With `Cc1c(Cl)c(Cl)c(C)c(Cl)c1Cl`, the T/C under setting [14] was 94 % of control; the T/C (dose: 200.0 mg/kg/injection, schedule: Q04DX003 (ip), vehicle: Klucel (hydroxypropylcellulose) (HPC)) is 100 % of control; the T/C (dose: 400.0 mg/kg/injection, schedule: Q04DX003 (ip), vehicle: Klucel (hydroxypropylcellulose) (HPC)) was 100 % of control.

With `CC1(C(Cl)(Cl)Cl)C=CC(=O)C=C1`, the T/C is 110 % of control under setting [7], 115 % of control under setting [8], 98 % of control under setting [4] and 107 % of control under setting [5].

For `CC1(C)OC1[Si](C)(C)C` (stereo unspecified), the T/C by setting is: under setting [5], 107 % of control; under setting [6], 121 % of control; under setting [10], 111 % of control.

Take `O=C1CCCCC1Oc1ccccc1` (stereo unspecified): the T/C runs as follows: under setting [6], 95 % of control; under setting [9], 95 % of control; under setting [10], 91 % of control; under setting [11], 100 % of control; under setting [12], 100 % of control.
